For two compounds, solubility (mole fraction) results are on record in BigSolDB 2.1.

For `CCCCOC(=O)c1ccc(O)cc1`, the solubility (mole fraction) was determined as 0.287 (in ethanol, 288.15 K); 0.361 (in ethanol, 298.15 K); 0.433 (in ethanol, 308.15 K); 0.524 (in ethanol, 318.15 K); 0.293 (in isopropanol, 288.15 K); 0.339 (in isopropanol, 298.15 K). The solubility (mole fraction) (in isopropanol, 308.15 K) is 0.415; the solubility (mole fraction) (in isopropanol, 318.15 K) was determined as 0.512; the solubility (mole fraction) (in n-propanol, 288.15 K) is 0.289; the solubility (mole fraction) (in n-propanol, 298.15 K) came out at 0.352; the solubility (mole fraction) (in n-propanol, 308.15 K) is 0.448; the solubility (mole fraction) (in n-propanol, 318.15 K) came out at 0.522.

Turning to `CCOC(=O)c1ccc(O)cc1`, the solubility (mole fraction) runs as follows: (in ethanol, 288.15 K) 0.123; (in ethanol, 298.15 K) 0.163; (in ethanol, 308.15 K) 0.201; (in ethanol, 318.15 K) 0.257; (in isopropanol, 288.15 K) 0.157; (in isopropanol, 298.15 K) 0.182. Further, the solubility (mole fraction) is 0.239 (in isopropanol, 308.15 K); 0.282 (in isopropanol, 318.15 K); 0.127 (in n-propanol, 288.15 K); 0.174 (in n-propanol, 298.15 K); 0.214 (in n-propanol, 308.15 K); 0.251 (in n-propanol, 318.15 K).
